This is an account of results in ChEMBL document CHEMBL1136662, “Synthesis and properties of 11-(3,5-di-tert-butyl-2-hydroxyphenylcarbamoyl)undecanoic acid, a new amphiphilic antioxidant” (Bioorg Med Chem Lett, 2003).

The data set can be described thus: Hydrophobicity was determined. The data set is classed as ADME.
As for `CC(C)(C)c1cc(NC(=O)CCCCCCCCC(=O)O)c(O)c(C(C)(C)C)c1`, the “k'” value is 0.38. For `CCCCCCCCCC(=O)Nc1cc(C(C)(C)C)cc(C(C)(C)C)c1O`, the “k'” value was 7.13. As for `CCCCCCCCCCCCCC(=O)Nc1cc(C(C)(C)C)cc(C(C)(C)C)c1O`, the figure is 25.2; as for `COCCCCCCCCCCCC(=O)Nc1cc(C(C)(C)C)cc(C(C)(C)C)c1O`, 6.39; as for `CCCCCCCCCCCC(=O)Nc1cc(C(C)(C)C)cc(C(C)(C)C)c1O`, 12.6.
